Values joined by “and” are separate entries in the source; they are usually repeats but may differ in a detail not shown here. Identical values can stand only once. Inconclusive results and toxic doses are left out. Rule for the calls: active = survival T/C of 150% or more; inactive = T/C below 125% in these data.
System: P388 leukemia ip, CD2F1 mice, survival T/C
Experiment: NCI In Vivo Anticancer Drug Screen. Data for tumor model P388 Leukemia (intraperitoneal) in CD2F1 (CDF1) mice
Conditions: endpoint: median survival time, higher = longer survival
Summary of the method: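 Mice carrying the transplanted tumor received test compound or vehicle. Survival was recorded in each group, and the value is the treated-group measurement divided by that of the vehicle-treated control group.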

Measured: T/C

CCCCCCCCCCSCC(N)C(=O)OCC (centres undefined)
inactive: dose: 50.0 mg/kg/injection, schedule: Q01DX009 (ip), vehicle: saline with Tween-80 99 % of control | dose: 100.0 mg/kg/injection, schedule: Q01DX009 (ip), vehicle: saline with Tween-80 94 % of control

Clc1cc(Cl)c(CBr)cc1CBr
inactive: dose: 3.0 mg/kg/injection, schedule: Q04DX003 (ip), vehicle: saline with Tween-80 104 % of control | dose: 6.0 mg/kg/injection, schedule: Q04DX003 (ip), vehicle: saline with Tween-80 104 % of control | dose: 12.0 mg/kg/injection, schedule: Q04DX003 (ip), vehicle: saline with Tween-80 100 % of control

O[C@@]12CO[C@@H](c3ccc4c(c3)OCO4)[C@@H]1CO[C@H]2c1ccc2c(c1)OCO2
inactive: dose: 25.0 mg/kg/injection, schedule: Q01DX005 (ip), vehicle: Klucel (hydroxypropylcellulose) (HPC) 92 % of control | dose: 50.0 mg/kg/injection, schedule: Q01DX005 (ip), vehicle: Klucel (hydroxypropylcellulose) (HPC) 90 % of control | dose: 100.0 mg/kg/injection, schedule: Q01DX005 (ip), vehicle: Klucel (hydroxypropylcellulose) (HPC) 86 % of control | dose: 200.0 mg/kg/injection, schedule: Q01DX005 (ip), vehicle: Klucel (hydroxypropylcellulose) (HPC) 95 % of control

CCC[CH2][Sn]([CH2]CCC)([S]CCS(=O)(=O)O)[S]CCS(=O)(=O)O (tested in a mixture with another compound)
inactive: dose: 60.0 mg/kg/injection, schedule: Q01DX005 (ip), vehicle: Klucel (hydroxypropylcellulose) (HPC) 105 % of control | dose: 120.0 mg/kg/injection, schedule: Q01DX005 (ip), vehicle: Klucel (hydroxypropylcellulose) (HPC) 105 % of control | dose: 240.0 mg/kg/injection, schedule: Q01DX005 (ip), vehicle: Klucel (hydroxypropylcellulose) (HPC) 115 % of control

COS(=O)(=O)C(F)(F)F
inactive: dose: 100.0 mg/kg/injection, schedule: Q01DX001 (ip), vehicle: saline 111 % of control | dose: 200.0 mg/kg/injection, schedule: Q01DX001 (ip), vehicle: saline 111 % of control | dose: 400.0 mg/kg/injection, schedule: Q01DX001 (ip), vehicle: saline 111 % of control

Cc1ccc(-c2nc3c(C)nc(-c4ccccc4)nc3n2Nc2ccccc2)cc1
inactive: dose: 50.0 mg/kg/injection, schedule: Q01DX005 (ip), vehicle: saline with Tween-80 94 % of control | dose: 100.0 mg/kg/injection, schedule: Q01DX005 (ip), vehicle: saline with Tween-80 90 % of control | dose: 200.0 mg/kg/injection, schedule: Q01DX005 (ip), vehicle: saline with Tween-80 91 % of control

Cc1ccc(S(=O)(=O)NC(=O)NC2=NC(C)(C)N(c3ccc(Cl)c(Cl)c3)C(N)=N2)cc1
inactive: dose: 60.0 mg/kg/injection, schedule: Q01DX005 (ip), vehicle: saline with Tween-80 105 % of control | dose: 120.0 mg/kg/injection, schedule: Q01DX005 (ip), vehicle: saline with Tween-80 108 % of control | dose: 240.0 mg/kg/injection, schedule: Q01DX005 (ip), vehicle: saline with Tween-80 114 % of control

COc1cc(CC2C(=O)OCC2Cc2cc(OC)c3c(c2)C(CO)C(c2ccc(O)c(OC)c2)O3)ccc1O (centres undefined)
inactive: dose: 5.0 mg/kg/injection, schedule: Q01DX009 (ip), vehicle: saline with Tween-80 102 % of control | dose: 10.0 mg/kg/injection, schedule: Q01DX009 (ip), vehicle: saline with Tween-80 118 % of control | dose: 20.0 mg/kg/injection, schedule: Q01DX009 (ip), vehicle: saline with Tween-80 101 % of control | dose: 40.0 mg/kg/injection, schedule: Q01DX009 (ip), vehicle: saline with Tween-80 108 % of control

CC(C)N(Cc1ccccc1)C(=O)Nc1ccc(Cc2ccc(NC(=O)N(Cc3ccccc3)C(C)C)cc2)cc1
inactive: dose: 50.0 mg/kg/injection, schedule: Q01DX009 (ip), vehicle: Klucel (hydroxypropylcellulose) (HPC) 90 % of control | dose: 100.0 mg/kg/injection, schedule: Q01DX009 (ip), vehicle: Klucel (hydroxypropylcellulose) (HPC) 96 % of control | dose: 200.0 mg/kg/injection, schedule: Q01DX009 (ip), vehicle: Klucel (hydroxypropylcellulose) (HPC) 93 % of control

CCC[CH2][Sn]([CH2]CCC)([O]C=O)[O]C=O
inactive: dose: 0.39 mg/kg/injection, schedule: Q01DX009 (ip), vehicle: saline 99 % of control and 108 % of control | dose: 0.79 mg/kg/injection, schedule: Q01DX009 (ip), vehicle: saline 100 % of control and 92 % of control | dose: 1.56 mg/kg/injection, schedule: Q01DX009 (ip), vehicle: saline 86 % of control and 94 % of control

N#CCCS(=O)(=O)c1ccc(Cl)cc1
inactive: dose: 50.0 mg/kg/injection, schedule: Q01DX009 (ip), vehicle: saline 99 % of control | dose: 100.0 mg/kg/injection, schedule: Q01DX009 (ip), vehicle: saline 100 % of control | dose: 200.0 mg/kg/injection, schedule: Q01DX009 (ip), vehicle: saline 100 % of control

From PubChem BioAssay AID330 (DTP/NCI, 2004)
